The numbers were not newly measured in patent US9758545B2, “Sensor with a scaffold having changeable conformations” (UNIVERSITÉ DE FRIBOURG, priority 2010, dated 2017), which cites them from elsewhere.

For the series the following is noted: antibiotics integrated into implant cements.

`CN[C@H](CC(C)C)C(=O)N[C@H]1C(=O)N[C@@H](CC(N)=O)C(=O)N[C@H]2C(=O)N[C@H]3C(=O)NC(C(=O)N[C@@H](C(=O)O)c4cc(O)cc(O)c4-c4cc3ccc4O)[C@H](O)c3ccc(c(Cl)c3)Oc3cc2cc(c3O[C@@H]2OC(CO)[C@@H](O)C(O)C2O[C@H]2CC(C)(N)[C@H](O)C(C)O2)Oc2ccc(cc2Cl)[C@H]1O` (stereo partly shown) [Vancomycin]: the temperature sensitive above result was “above 25 °C”.
